Measured values from US12478624B2, “Heterocyclic derivatives, pharmaceutical compositions and their use in the treatment or amelioration of cancer” (Tolremo Therapeutics AG, priority 2019, dated 2025).
pEC50: −log10 of the molar value.

Columns and labels:
[1] = molecular target: T1, CBP Bromodomain (Homo sapiens, UniProt Q92793); assay: Assay 3: CBP bromodomain binding assay (TR-FRET)
T1 construct: purchased Cayman chemicals 600850
Experimental: Assay 3 CBP Bromodomain Binding Assay (TR-FRET)
Compounds solutions of 10 mM in DMSO were pre-diluted in DSMO to 25× stock solutions in DMSO. These were then diluted down to 4× in assay buffer. A dilution series in assay buffer was performed keeping the DMSO concentration stable. 5 μl compound in assay buffer was transferred into the assay plate (provided by assay kit) and the TR-FRET assay Cayman chemicals; 600850) was performed using the manufactor's instructions. After 1 hour incubation at room temperature in the darks, assay plates were read in a Tecan M1000 plate reader or a Tecan Spaks reader using the TR-FRET mode (top read; excitation 340 nm bandwidth […]; emission 620 nm bandwidth […]; gain optimal determined for the first well, number of flashes: 5; flash frequency 100 Hz; integration time: 500 μs, lag time: 100 μs, room temperature). The TR-FRET ratio was calculated by deviding 670 nm emission by 620 nm emission. Values were log transformed and non-linear regression with variable slope (4 parameters) was used to fit values to a dose-response curve to evaluate EC50 values.

[2] = tested on: A375 cells; assay: Assay 1: A375 cells treated with S1152, S1008 and compound, immunofluorescence (sc-365823) signal; assay type: cell-based; details: 1 μM S1152 + 0.5 μM S1008, one day
Outline: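 A375 cells treated one day with 1 μM S1152, 0.5 μM S1008 and compound dose ranges in DMEM/10% FCS, then fixed, permeabilised and immunostained. Green signal normalised to nuclear counterstain (ethidium-type or DAPI), log ratio fitted by four-parameter regression for EC50.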

[3] = tested on: OPM-2; assay: Assay 2: multiple myeloma cellular efficacy, PrestoBlue cell proliferation/survival; assay type: cell-based; details: Homo sapiens, 96 h, OPM-2 cells, 4 days
Outline: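 Cells seeded at 10000/well and exposed to a compound dose range or vehicle for 4 days, then stained with PrestoBlue for 2 h at 37 °C. Fluorescence was background-subtracted and normalized to vehicle; EC50 came from a four-parameter variable-slope fit against log concentration.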

T1 sequence (Q92793 1085-1192 limits assumed): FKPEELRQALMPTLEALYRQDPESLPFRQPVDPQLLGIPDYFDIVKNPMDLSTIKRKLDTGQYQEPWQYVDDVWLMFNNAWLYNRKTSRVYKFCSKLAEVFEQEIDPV

pEC50 [1] | pEC50 [2] | Compound | pEC50 [3]
6.00 to 6.70 | 6.00 to 6.70 | CC(=O)N1C[C@H](c2nc(Nc3ccccc3)cc(-c3cncnc3)n2)CC[C@@H]1C (racemic) [Compound 00072, (+/−)-cis-1-(2-methyl-5-(6-(phenylamino)-[4,5′-bipyrimidin]-2-yl)piperidin-1-yl)ethan-1-one] | 6.00 to 6.70
> 6.70 | > 6.70 | CC(=O)N1C[C@H](c2nc(Nc3cccc(-c4cnn(C)c4)c3)cc(-c3cccnc3)n2)CC[C@@H]1C [Compound 00044, 1-((2S,5R)-2-methyl-5-(4-((3-(1-methyl-1H-pyrazol-4-yl)phenyl)amino)-6-(pyridin-3-yl)pyrimidin-2-yl)piperidin-1-yl)ethan-1-one] | > 6.70
> 6.70 | > 6.70 | CC(=O)N1C[C@H](c2nc(Nc3cccc(-c4cn(C)nn4)c3)cc(-c3cncc4c3ccn4C)n2)CC[C@@H]1C [Compound 00086, 1-((2S,5R)-2-methyl-5-(4-((3-(1-methyl-1H-1,2,3-triazol-4-yl)phenyl)amino)-6-(1-methyl-1H-pyrrolo[2,3-c]pyridin-4-yl)pyrimidin-2-yl)piperidin-1-yl)ethan-1-one] | > 6.70
> 6.70 | > 6.70 | CC(=O)N1C[C@H](c2nc(Nc3ccnc(F)c3)cc(-c3cnccn3)n2)CC[C@@H]1C [Compound 00128, 1-((2S,5R)-5-(4-((2-fluoropyridin-4-yl)amino)-6-(pyrazin-2-yl)pyrimidin-2-yl)-2-methylpiperidin-1-yl)ethan-1-one] | > 6.70
